Data from patent US12377079B2, “Antibacterial compounds and uses thereof” (The Children's Medical Center Corporation, priority 2018, dated 2025).
In brackets after ≈: the same amount, converted by molar mass. Entries after “also recorded” stand apart in the source; their conditions may differ. Where two headings read alike, the source gives them in different places.

Columns and labels:
[1] = system: K. pneumoniae strain BAA-1705; experiment: High-throughput screen / dose-response based on mannose fermentation; settings: 22 hours, pH-DM, concentrations similar to primary and cherry-pick screens
[2] = system: Group A streptococcus; experiment: Minimum inhibitory concentration (MIC); settings: read-out: Minimum inhibitory concentration (MIC)
[3] = target: T1, Glut1 (Homo sapiens, UniProt P11166); settings: high-throughput screen, PubChem BioAssay; cited from earlier work
T1 sequence (P11166 1-492): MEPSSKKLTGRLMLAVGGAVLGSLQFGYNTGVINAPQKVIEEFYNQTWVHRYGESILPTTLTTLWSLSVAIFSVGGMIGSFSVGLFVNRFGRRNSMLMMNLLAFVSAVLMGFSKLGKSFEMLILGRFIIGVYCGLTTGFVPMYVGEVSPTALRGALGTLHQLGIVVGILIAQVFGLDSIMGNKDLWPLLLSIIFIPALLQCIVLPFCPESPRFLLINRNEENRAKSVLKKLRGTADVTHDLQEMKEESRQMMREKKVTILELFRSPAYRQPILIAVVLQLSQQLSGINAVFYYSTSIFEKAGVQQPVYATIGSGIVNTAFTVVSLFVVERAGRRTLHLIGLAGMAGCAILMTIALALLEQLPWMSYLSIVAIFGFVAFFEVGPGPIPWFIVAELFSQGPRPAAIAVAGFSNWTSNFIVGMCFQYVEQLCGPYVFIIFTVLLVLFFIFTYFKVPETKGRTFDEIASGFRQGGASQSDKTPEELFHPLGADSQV

[4] = system: P. aeruginosa PA01; experiment: Minimum inhibitory concentration (MIC); settings: for Minimum inhibitory concentration (MIC): P. aeruginosa PA01, PAβN + (40 μg/mL); for MIC: Pseudomonas aeruginosa, PA01, read-out: Minimum inhibitory concentration (MIC)
[5] = system: resistant GNR; experiment: MIC with and without efflux pump inhibitor PAβN, resistant GNR as a group
[6] = system: K. pneumoniae (Kp233); experiment: Morphometric analysis by phase contrast microscopy; assay type: cell-based, Klebsiella pneumoniae; settings: stationary phase cells, 4 hr; compounds 100 μl/mI alone or with PAβN, ampicillin 150 μg/mL
Protocol: (§1) Morphometric analysis. Carbapenem-susceptible Kp233 were treated as described for stationary phase viability assays, with the exception that negative control wells contained no DMSO and no antimicrobials. Ampicillin (150 μg/mL) was used as a positive control. Cells were incubated statically at 37° C. for 4 hr. Thirty μL from each well was transferred into a 24-well plate filled with 300 μL of LB broth. Images were captured with a 40× magnification lens using a Nikon Eclipse TE2000-E microscope. Morphometric analysis was carried out using IPLab 4.0 software.

[7] = system: K. pneumoniae (Kp233); experiment: Compound impact on bacterial viability (exponential and stationary phase); assay type: cell-based, Klebsiella pneumoniae; settings: 4 hr, exponential and stationary phase; for Bacterial viability (CFU) with efflux pump inhibition: 100 μg/mL compound + PAβN 40 μg/ml
Protocol: Compound impact on bacterial viability. […] One hundred μL of each compound preparation was dispensed into the wells of a microtiter plate. Negative (untreated) wells contained LB with or without PAβN only. Stationary phase cell viability. A glycerol stock of the carbapenem-susceptible clinical strain of K. pneumoniae (Kp233) was inoculated into 1.5 mL of LB and incubated overnight (approximately 18 hr) at 37° C. with shaking. […] Cells were incubated statically at 37° C. for 4 hr, and viable counts were determined by plating. Exponential phase cell viability. Overnight cultures of Kp233 were diluted 1:5,000 into 50 mL of LB broth and incubated at 37° C. with shaking at 200 rpm. […] These cells were also washed twice with NS and inoculated into the wells of a microtiter plate prepared as described above. Cells were incubated statically at 37° C. for 4 hr, and viable counts were determined by plating.

[8] = system: A. baumanii; experiment: Minimum inhibitory concentration (MIC); settings: for Minimum inhibitory concentration (MIC): A. baumanii, PAβN + (40 μg/mL); for MIC: Acinetobacter baumannii, read-out: Minimum inhibitory concentration (MIC)
[9] = system: E. coli urine isolate EC235; experiment: Minimum inhibitory concentration (MIC); settings: Escherichia coli, read-out: Minimum inhibitory concentration (MIC)
[10] = system: Kp233/pJBA110; experiment: GFP fluorescence assay (protein synthesis); settings: 15 hr
[11] = target: LmGT2 (Leishmania mexicana, UniProt O61059); settings: high-throughput screen, PubChem BioAssay; cited from earlier work
[12] = system: E. coli urine isolate EC236; experiment: Minimum inhibitory concentration (MIC); settings: Escherichia coli, read-out: Minimum inhibitory concentration (MIC)
[13] = system: HeLa S3 cells; experiment: Alamar Blue assay for cytotoxicity; assay type: cell-based, human; settings: 20 hours
Protocol: Alamar Blue assay for cytotoxicity. HeLa S3 cells were cultured in Dulbecco's modified Eagle medium supplemented with 10% fetal bovine serum, 100 U/mL penicillin, and 100 μg/mL streptomycin. Each well of a 96-well microtiter plate (Nunclon Delta Surface, Thermo Scientific) was seeded with 10,000 cells in 100 μL of culture medium. Cells were incubated for 18 hr in a humidified incubator at 37° C. with 5% CO2 to allow attachment. Compounds were added to the adherent cells to yield a final concentration of 13 and 107 μg/mL. Positive control wells contained 0.1% Triton X-100, carrier control wells contained DMSO, and negative control wells contained medium and cells without DMSO. After addition of compounds, 0.1% Triton, or DMSO, plates were returned to the incubator. Cell viability was measured by resazurin reduction. Alamar Blue reagent (Invitrogen) was added to the cells after a 1.5 hr incubation with the test compounds. Cells were incubated for 20 hr, and then fluorescence was measured using the Infinite 200 (Tecan) with excitation and emission wavelengths of 550 nm and 590 nm, respectively. To calculate viability, the average fluorescence value of Triton-treated positive control wells was subtracted from that of untreated wells or wells containing test compounds. These values were then divided by the average fluorescence of untreated wells to give cell viability as a percentage of the negative control.

[14] = system: MRSA; experiment: Minimum inhibitory concentration (MIC); settings: Staphylococcus aureus, read-out: Minimum inhibitory concentration (MIC)
[15] = Particulate matter in aqueous media (micrographs); assay type: physicochemical; settings: 100 μg/mL in culture medium
Protocol: as §1

[16] = system: CR-K. pneumoniae (ATCC BAA-1705); experiment: Minimum inhibitory concentration (MIC); settings: for Minimum inhibitory concentration (MIC): CR-K. pneumoniae ATCC BAA-1705, PAβN + (40 μg/mL); for MIC: Klebsiella pneumoniae
[17] = system: K. pneumoniae Kp233; experiment: Minimum inhibitory concentration (MIC); settings: for MIC: Klebsiella pneumoniae
[18] = system: S. aureus teichoic acid biosynthesis; settings: secondary screens, after a hit in the primary screen; cited from earlier work
[19] = target: Human tyrosyl-DNA phosphodiesterase 1 (TDP1) (Homo sapiens, UniProt Q9NUW8); settings: PubChem BioAssay; cited from earlier work
[20] = system: Lassa virus entry; settings: PubChem BioAssay; cited from earlier work
[21] = ATCCBAA1705, read-out: Minimum inhibitory concentration (MIC)
[22] = KP233, read-out: Minimum inhibitory concentration (MIC)
[23] = higher concentration (107 μg/mL)

Chain of Human tyrosyl-DNA phosphodiesterase 1 (TDP1) (Q9NUW8 whole entry): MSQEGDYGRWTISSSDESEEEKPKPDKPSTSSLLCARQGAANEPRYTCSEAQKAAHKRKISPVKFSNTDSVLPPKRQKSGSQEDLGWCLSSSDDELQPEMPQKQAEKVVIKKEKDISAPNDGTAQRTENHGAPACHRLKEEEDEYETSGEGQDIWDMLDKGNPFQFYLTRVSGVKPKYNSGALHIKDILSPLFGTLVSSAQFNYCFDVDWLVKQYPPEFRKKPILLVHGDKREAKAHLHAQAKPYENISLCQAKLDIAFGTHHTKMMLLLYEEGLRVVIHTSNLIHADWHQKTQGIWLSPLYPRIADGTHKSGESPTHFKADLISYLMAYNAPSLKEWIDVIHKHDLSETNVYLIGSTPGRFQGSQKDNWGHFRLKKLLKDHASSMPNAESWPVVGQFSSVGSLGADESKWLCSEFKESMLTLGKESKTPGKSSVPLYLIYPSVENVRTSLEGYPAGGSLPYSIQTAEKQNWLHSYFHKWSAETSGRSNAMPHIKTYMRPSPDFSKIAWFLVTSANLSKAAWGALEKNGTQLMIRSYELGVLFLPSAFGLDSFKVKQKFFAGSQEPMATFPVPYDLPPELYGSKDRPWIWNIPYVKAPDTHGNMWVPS
Chain of LmGT2 (O61059 entry or part of it): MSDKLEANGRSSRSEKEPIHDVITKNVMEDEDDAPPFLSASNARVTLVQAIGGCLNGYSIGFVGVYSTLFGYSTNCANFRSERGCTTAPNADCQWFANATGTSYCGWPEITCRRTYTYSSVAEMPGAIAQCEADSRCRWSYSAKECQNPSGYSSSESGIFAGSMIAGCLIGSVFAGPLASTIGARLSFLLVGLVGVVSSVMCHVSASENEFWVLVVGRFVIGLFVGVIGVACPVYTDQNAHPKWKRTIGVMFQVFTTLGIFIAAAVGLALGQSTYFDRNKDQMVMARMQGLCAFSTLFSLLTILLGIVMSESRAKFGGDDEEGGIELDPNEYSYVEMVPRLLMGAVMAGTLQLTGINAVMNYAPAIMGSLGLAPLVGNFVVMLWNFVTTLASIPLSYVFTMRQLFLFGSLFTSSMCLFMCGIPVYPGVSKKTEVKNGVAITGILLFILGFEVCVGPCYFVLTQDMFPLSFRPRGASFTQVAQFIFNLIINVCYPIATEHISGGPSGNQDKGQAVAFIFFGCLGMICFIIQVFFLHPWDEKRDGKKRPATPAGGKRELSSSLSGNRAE

Structure (SMILES): Clc1cc(Br)ccc1-c1ccc(CNCC2CCNCC2)o1 [Compound O06]
- Inhibition of mannose fermentation [1]: inhibited fermentation
- MIC [2]: 48 µg/mL (≈ 125 µM)
- Activity in screen for Glut1 inhibitors [3]: active
- Minimum inhibitory concentration (MIC) [4]: 24 µg/mL
- MIC [4]: > 96 µg/mL
- Change of MIC on addition of PAβN (in words) [5]: minimally decreased
- Cell shape / average particle size [6]: do not significantly alter cell shape
- Bacterial viability (CFU) with efflux pump inhibition [7]: significantly potentiated the killing activity; also recorded: significantly decrease the viability
- Bacterial viability (CFU) ([7]; 100 μg/mL compound alone): decreased the viability
- Minimum inhibitory concentration (MIC) [8]: 24 µg/mL
- MIC [8]: 48 µg/mL (≈ 125 µM)
- MIC [9]: 96 µg/mL (≈ 250 µM)
- Bacterial growth (OD) and GFP fluorescence ([10]; highest concentration used (100 μg/mL)): decreased both bacterial growth and protein synthesis
- Activity in screen for LmGT2 inhibitors [11]: active
- MIC [12]: 96 µg/mL (≈ 250 µM)
- Toxicity to HeLa S3 cells (viability by resazurin reduction) ([13]; 13 and 107 μg/mL): most toxic
- MIC [14]: 48 µg/mL (≈ 125 µM)
- Particulate matter in micrographs (insolubility in aqueous media) [15]: not
- Minimum inhibitory concentration (MIC) [16]: 96 µg/mL
- MIC [16, 21]: 96 µg/mL (≈ 250 µM)
- MIC [17, 22]: 96 µg/mL (≈ 250 µM)

Structure (SMILES): Cc1nn2c(=O)cc(-c3ccc(Cl)cc3)[nH]c2c1-c1ccccc1 [Compound N08]
- MIC [2]: > 96 µg/mL
- Inhibition of teichoic acid biosynthesis [18]: not found to have this activity
- Minimum inhibitory concentration (MIC) [4]: 12 µg/mL
- MIC [4]: > 96 µg/mL
- Reduction of MIC by addition of PAβN [5]: 1-2 logs
- Cell shape / average particle size [6]: do not significantly alter cell shape
- Bacterial viability (CFU) with efflux pump inhibition [7]: significantly potentiated the killing activity; also recorded: significantly decrease the viability
- Minimum inhibitory concentration (MIC) [8]: 1.5 µg/mL
- MIC [8]: > 96 µg/mL
- MIC [9]: > 96 µg/mL
- Bacterial growth (OD) and GFP fluorescence ([10]; low concentrations): interfered with GFP fluorescence but not growth
- MIC [12]: > 96 µg/mL
- Toxicity to HeLa S3 cells (viability by resazurin reduction) ([13]; 13 and 107 μg/mL): minimal toxicity
- Toxicity to HeLa S3 cells (viability by resazurin reduction) [13, 23]: moderately toxic
- MIC [14]: < 0.75 µg/mL
- Inhibition of TDP1 (screen) [19]: flagged
- Inhibition of Lassa virus entry (screen) [20]: flagged
- Particulate matter in micrographs (insolubility in aqueous media) [15]: particulate matter was observed
- Minimum inhibitory concentration (MIC) [16]: 6 µg/mL
- MIC [16, 21]: > 96 µg/mL
- MIC [17, 22]: > 96 µg/mL

Structure (SMILES): Cc1nn2c(=O)cc(-c3ccc(F)cc3)[nH]c2c1-c1ccccc1 [Compound F02]
- Toxicity to HeLa S3 cells (viability by resazurin reduction) [13, 23]: moderately toxic

Structure (SMILES): O=C1C=C2C(=CCOC2O)O1 (centres unmarked) [patulin, reference compound]
- MIC ([16]; ATCCBAA1705, read-out: Minimum inhibitory concentration, CR-K. pneumoniae ATCC BAA-1705, Defined Medium): 9.38 µg/mL (≈ 60.9 µM)
- MIC ([16]; ATCCBAA1705, read-out: Minimum inhibitory concentration, CR-K. pneumoniae ATCC BAA-1705, LB broth (rich medium)): 18.8 µg/mL (≈ 122 µM)
- Minimum inhibitory concentration ([17]; K. pneumoniae Kp233, Defined Medium): 9.38 µg/mL (≈ 60.9 µM)
- MIC ([17]; KP233, read-out: Minimum inhibitory concentration): 9.38 µg/mL (≈ 60.9 µM)
